Square brackets hold non-standard residues; d marks the D form. Peptide text beside a SMILES is read from it.
Key:
[1] = system: lymphocytes (T cells); test: PHA stimulation test (lymphocyte transformation test); assay type: cell-based; conditions: Dosage 100 ng/substance/1 ml of cell culture; 10 μg of PHA/1 ml, 72 hours; untreated control 1.00
Description: In the PHA stimulation test (PHA=phytohemagglutinin) or the lymphocyte transformation test, conclusions as to the number of mature, i.e. stimulatable, lymphocytes are drawn not via investigation of the surface antigens but by the function test for ability to be stimulated by the plant lectin PHA. The lymphocytes (T cells) are stimulated to […] transformation by the lectin, in the same way as by bacterial or viral antigens. This leads to proliferation, either directly or by the release of lymphokins. The incorporation of the radiolabeled thymidine within a certain time is then a measure of the number of stimulated cells. Only the mature or immunologically potent T cells are stimulated. The influence of a substance on lymphocyte maturation can therefore be monitored with this test. However, the stimulation must be sub-optimum, since other sub-populations of lymphocytes are also stimulated at higher concentrations and the effect can no longer be observed. The peptides to be investigated have been added to the culture medium in various concentrations. They are present throughout the entire duration of the test (up to 72 hours).

[2] = system: spleen cells of mice (B lymphocytes), in vitro immunization with sheep erythrocytes; test: plaque-forming cell test (PFC test); assay type: cell-based; conditions: Dosage 100 ng/substance/1 ml of cell culture; mouse spleen cell culture, 5 days; untreated control 221 ± 30
Method: […]. The in vitro immunization is effected with 5×10^7 sheep erythrocytes/ml. The test cell cultures are incubated daily with the corresponding dose of the test substance.
After a running time of 5 days, the cells are centrifuged off and washed with medium RPMI 1640 and the direct PFC test is carried out. For this, the cells are mixed with a 10% sheep erythrocyte suspension in an agarose solution and the mixture is poured onto a flat surface. In the layer of gel formed, the stimulated lymphocytes release antibodies during subsequent incubation, and these diffuse into the environment and attach themselves to the sheep erythrocytes therein. After addition of guinea pig complement, the red blood cells lyse. Light-colored round spots which can be seen with the naked eye form in the reddish-brown gel, i.e. the hemolysis areolas of the plaques. An antibody-producing cell is found in the center of such hemolysis areolas. The number of lymphoid cells which form specific immunoglobulins can consequently be equated with the numbers of plaques found.

| SMILES | PHA stimulation index [1] | PFC/10^6 cells [2] [PFC/10^6 cells] |
| --- | --- | --- |
| CC(C)[C@H]1NC(=O)[C@H](CCC(=O)O)NC(=O)[C@H](CCCCN)NC(=O)[C@H](CCCNC(=N)N)NC(=O)[C@H](Cc2ccc(O)cc2)NC1=O [cyclo-(Arg--Lys--Glu--D-Val--Tyr), cyclo-(Arg-Lys-Glu-D-Val-Tyr).2 HOAc] (cyclo(E[dV]YRK)) | 1.92 | 687 ± 73 |
| CC(C)[C@H]1NC(=O)[C@H](CCC(=O)O)NC(=O)[C@H](CCCCN)NC(=O)[C@H](CCCNC(=N)N)NC(=O)[C@H](Cc2c[nH]c3ccccc23)NC1=O [cyclo-(Arg--Lys--Glu--D-Val--Trp)] (cyclo(E[dV]WRK)) | 1.25 | 369 ± 54 |
| CC(C)[C@@H]1NC(=O)[C@H](CCC(=O)O)NC(=O)[C@H](CCCNC(=N)N)NC(=O)[C@@H](CCCCN)NC(=O)[C@H](Cc2ccc(O)cc2)NC1=O [cyclo-(D-Lys--Arg--Glu--Val--Tyr)] (cyclo(EVY[dK]R)) | 1.15 | 317 ± 41 |
| CC(C)[C@H]1NC(=O)[C@H](CC(=O)O)NC(=O)[C@H](CCCCN)NC(=O)[C@H](CCCNC(=N)N)NC(=O)[C@H](Cc2c[nH]c3ccccc23)NC1=O [cyclo-(Arg--Lys--Asp--D-Val--Trp)] (cyclo(D[dV]WRK)) |  | 312 ± 58 |
| CC(C)[C@H]1NC(=O)[C@H](CC(=O)O)NC(=O)[C@H](CCCCN)NC(=O)[C@H](CCCNC(=N)N)NC(=O)[C@H](Cc2ccc(O)cc2)NC1=O [cyclo-(Arg--Lys--Asp--D-Val--Tyr), cyclo-(Arg-Lys-Asp-D-Val-Tyr).2HOAc] (cyclo(D[dV]YRK)) | 1.69 | 401 ± 64 |
| CC(C)[C@@H]1NC(=O)[C@H](CCC(=O)O)NC(=O)[C@H](CCCCN)NC(=O)[C@H](CCCNC(=N)N)NC(=O)[C@@H](Cc2ccccc2)NC1=O [cyclo-(Arg--Lys--Glu--Val--D-Phe)] (cyclo(EV[dF]RK)) |  | 250 ± 31 |
| CC(C)[C@@H]1NC(=O)[C@H](CC(=O)O)NC(=O)[C@H](CCCNC(=N)N)NC(=O)[C@@H](CCCCN)NC(=O)[C@H](Cc2ccc(O)cc2)NC1=O [cyclo-(D-Lys--Arg--Asp--Val--Tyr)] (cyclo(DVY[dK]R)) |  | 341 ± 43 |

Source: US4650788A, “Novel peptides having an immunostimulating action, processes for their preparation and their use” (Hoechst Aktiengesellschaft, priority 1983, dated 1987)
